Patent US20250205204A1, “Transcription Factor Brn2 Inhibitory Compounds for Use as Therapeutics” (The University of British Columbia, priority 2021, published 2025)
“Also recorded” adds a separate entry of the source.

Legend:
16D^CRPC cells = assay: Cell proliferation, 16D cells that do not express BRN2 (crystal violet); assay type: cell-based; conditions: for concentration above which 16D is affected: proliferation; for effect on 16D: result in words
Experimental: Step 3: Cell Proliferation
Plate 42DE^NZR (˜7000 cells per well) and 16D^CRPC (˜5000 cells per well) cells in 96 well plate with a volume of 100 μL per well. • 2. Next day 1 mL aliquots of media are combined with 3× the desired concentration of compounds. The aliquots are vortexed and 50 μL of each 3× concentration is added to the 100 μL of media in each well to give the ix desired concentration.
The following are the desired concentrations:
0, 10 nM, 100 nM, 500 nM, 1 μM, 2.5 μM, 5 μM, 10 μM, 15 μM, 20 μM, 30 μM. • 3. Approximately 72 hours later, 17 μL of 10% Glutaraldehyde is added to each well and plates are placed on a shaker for 20-30 minutes. • 4. Media is washed off the fixed cells by slow submersion in a container of water. Then the water is removed by tapping the plate upside down. • 5. 75 μL of Crystal Violet™ solution is added into the 96 well plates and placed on a shaker for ˜30 minutes. • 6. Media is washed off the fixed cells by repeated slow submersion in a container of water and the plates are allowed to dry over-night. • 7. Next day, 75 μL of Sorensen Solution is accurately pipetted into each well. The plates placed on a shaker for ˜30 minutes. • 8. Absorbance is measured in the plate at 590 nm. Compounds that Show Specificity Towards 42DE^NZR Cells Vs 16D^CRPC Cells Progress to Step 4.
(§1) In TABLES 1 and 2, in columns Met Stab % and T½, refers to compound's stability in MLM. There is a distinction in TABLES 1 and 2 difference between “Active” and “Specific” or “Specificity”. Some of the compounds were first tested to quantify inhibition of BRN2 transcriptional activity in a luciferase assay to determine BRN2 inhibition at 10 μM and 30 μM concentrations. […] Generally, compounds having low inhibitory activity were compounds with less than about ˜30% or activation at either concentration (i.e. 10 μM or 30 μM). Furthermore, some compounds that lacked specificity could also show off-target effects.

42D^ENZR cells = assay: Cell proliferation, BRN2 expressing 42D cells (crystal violet); assay type: cell-based; conditions: about 72 hours; for Growth Specificity: 42D (express BRN2) versus 16D (no BRN2) cells, result in words; for IC50: 42D cells, proliferation, read-out: 42D IC50
Outline: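 42D^ENZR (~7000/well) and 16D^CRPC (~5000/well) cells plated, compound added next day from 3× media stocks. After ~72 hours, cells fixed with glutaraldehyde, stained with crystal violet, dye eluted in Sorensen solution; absorbance read at 590 nm.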

BRN2 [1] = target: T1, BRN2 (Homo sapiens, UniProt P20265); assay: BLI binding; conditions: result in words
T1 sequence (P20265 1-443): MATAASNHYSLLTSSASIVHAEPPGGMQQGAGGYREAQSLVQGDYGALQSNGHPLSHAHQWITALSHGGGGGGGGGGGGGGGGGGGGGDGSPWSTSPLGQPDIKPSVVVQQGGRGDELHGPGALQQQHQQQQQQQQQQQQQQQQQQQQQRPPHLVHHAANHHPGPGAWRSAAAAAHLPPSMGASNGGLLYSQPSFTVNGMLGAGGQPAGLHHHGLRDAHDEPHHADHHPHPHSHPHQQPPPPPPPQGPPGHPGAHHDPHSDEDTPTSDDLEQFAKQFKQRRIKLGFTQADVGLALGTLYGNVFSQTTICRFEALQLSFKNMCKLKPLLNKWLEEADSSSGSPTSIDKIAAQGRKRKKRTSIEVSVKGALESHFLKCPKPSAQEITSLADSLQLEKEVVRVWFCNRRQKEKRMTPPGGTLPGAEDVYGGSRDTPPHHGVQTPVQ

[2] = Metabolic stability in liver microsomes (MLM); assay type: in vitro ADME, mice; conditions: 0.25 mg/mL protein; for half-life at 1 μM: mouse, liver microsomes, pH 7.4, 1 μM compound, read-out: T1/2 in mins (MLM); for Met Stab % (60 mins) MLM: percent remaining at 60 min, 1 μM compound, 1 mM NADPH
Outline: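 Mouse liver microsomes (0.25 mg/mL protein) in 50 mM potassium phosphate pH 7.4 at 37 °C with 1 µM compound, 1 mM NADPH, 0.1% DMSO; sampled 0–60 min in duplicate. LC-MS/MS parent depletion gives half-life; CL'int in mL/min/kg scaled with 45 mg protein/g liver, 90 g liver.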

[3] = tested on: BRN2 transcriptional activity; assay: BRN2-luciferase reporter activity in 42D^ENZR cells; assay type: cell-based; conditions: 24 hours
From the text: Step 1: Reporter Activity
Decreased expression of luciferase protein is validated via western blot to confirm downregulation and avoid false positive molecules that inhibit luciferase protein activity and not BRN2-drive luciferase expression. Molecules are prioritized by their inhibition potency to measure direct interaction with BRN2 in Step 2.
as §1

BRN2 [4] = target: T1, BRN2; assay: Drug Affinity Responsive Target Stability (DARTS) assay; conditions: printed in BLI binding column; 42D^ENZR lysate
Experimental: Step 2: Drug Affinity Responsive Target Stability (DARTS) Assay
This in cell assay provides a yes/no answer to direct interaction between BRN2 inhibitor and protein.
1) Prepare and place the following on ice: • Pronase • TNC 10× • 500 mM Tris-HCl (pH 8.0) • 500 mM NaCl, 100 mM CaCl2 • DMSO • Drug • 10 mL NP40+Protease inhibitor+Phosphatase inhibitor solution (can store in 4° C. and use for up to 4 weeks): • 2 mL NP40 5× • 8 mL ddH2O • 1 PhosphoSTOP™ pill • 200 uL protease inhibitor 50×
2) Remove the growth medium from the cell plate (42D^ENZR) and add 10 mL of cold PBS/vanadate.
3) Scrape the cells. Remove the PBS-cell solution and add in a falcon tube.
4) Name a new 1.5 ml Eppendorf tube and put on ice to pre-chill.
5) Centrifuge the cells at 1500 for 5 minutes at 4° C. Remove supernatant and re-suspend the cells in 600 uL NP40 lysis buffer by pipetting up and down. If the cell pellet is small use less volume, for example 300 μl)
6) Transfer the lysing cells into the pre-chilled Eppendorf tube. Incubate on ice for 20 minutes. If not continuing the DARTS on the same day, you can put the lysate in −30 and work on it later.
Preparing Cell Lysates for DARTS:
7) Centrifuge the tube at maximum speed for 25-30 minutes at 4° C.
8) Discard the pellet (either transfer the supernatant in a new tube or just take out the pellet). […]
20) The samples are ready for Western blot gel running. […]

## CC(C)Oc1ccc2c(c1)C/C(=N/Nc1nc3ccccc3s1)C2=O [7-73, (Z)-2-(2-(benzo[d]thiazol-2-yl)hydrazineylidene)-5-isopropoxy-2,3-dihydro-1H-inden-1-one]
16D^CRPC cells
  concentration above which 16D is affected: > 15 µM
42D^ENZR cells
  Growth Specificity: Specific to 42D at low doses
BRN2 [1]
  BLI binding: Positive binding
[2]
  half-life at 1 μM: 26 min
  Met Stab % (60 mins) MLM: 19%

## c1ccc2c(c1)CC/C2=N\Nc1nc2ccccc2s1 [VPC-7]
42D^ENZR cells
  Growth Specificity: 42D not 16D
[3]
  inhibition at 10 µM: 82.1%
  inhibition at 30 µM: 97.8%

## c1ccc2c(c1)CC/C2=N\Nc1ccc2ccccc2n1 [VPC-39]
42D^ENZR cells
  Growth Specificity: non-specific
[3]
  inhibition at 10 µM: 99%
  inhibition at 30 µM: 99.9%

## O=C1/C(=N\Nc2nc3ccccc3s2)Cc2ccc(Cl)cc21 [7-72]
16D^CRPC cells
  concentration above which 16D is affected: > 15 µM
42D^ENZR cells
  Growth Specificity: Specific to 42D at low doses
[2]
  half-life at 1 μM: 17 min
  Met Stab % (60 mins) MLM: 8%

## CC(C)Oc1ccc2c(c1)C(=O)/C(=N\Nc1nc3ccccc3s1)C2 [7-74, (Z)-2-(2-(benzo[d]thiazol-2-yl)hydrazineylidene)-6-isopropoxy-2,3-dihydro-1H-inden-1-one]
16D^CRPC cells
  concentration above which 16D is affected: > 20 µM
42D^ENZR cells
  Growth Specificity: Specific to 42D at low doses
BRN2 [1]
  BLI binding: Positive binding
[2]
  half-life at 1 μM: 17 min
  Met Stab % (60 mins) MLM: 6%

## c1ccc2c(c1)CC/C2=N\Nc1nc2ccccc2[nH]1 [VPC-8]
42D^ENZR cells
  Growth Specificity: 42D and 16D non-specific
[3]
  inhibition at 10 µM: 84.5%
  inhibition at 30 µM: 96.1%

## O=C1/C(=N\Nc2nc3ccccc3s2)Cc2cc(C(F)(F)F)ccc21 [7-108]
16D^CRPC cells
  concentration above which 16D is affected: > 15 µM
42D^ENZR cells
  Growth Specificity: Specific to 42D cells until 10 μM; also recorded: Specific to 42D cells up to 10 μM
BRN2 [1]
  BLI binding: Positive binding
[2]
  half-life at 1 μM: > 60 min
  Met Stab % (60 mins) MLM: 68%

## c1ccc2sc(N/N=C3/CCc4ccncc43)nc2c1 [7-66]
16D^CRPC cells
  effect on 16D: no effect on 16D
42D^ENZR cells
  Growth Specificity: Specific to 42D
  IC50: 10 µM
[2]
  half-life at 1 μM: 8 min
  Met Stab % (60 mins) MLM: 1%

## Fc1ccc2c(c1)CC/C2=N/Nc1nc2ccccc2s1 [7-57]
16D^CRPC cells
  effect on 16D: no effect on 16D
42D^ENZR cells
  Growth Specificity: Specific to 42D
  IC50: 10 µM
BRN2 [1]
  BLI binding: Positive
[2]
  half-life at 1 μM: 8 min
  Met Stab % (60 mins) MLM: 0%

## Fc1cccc2nc(N/N=C3/CCc4ccccc43)sc12 [7-65]
16D^CRPC cells
  effect on 16D: no effect on 16D
42D^ENZR cells
  Growth Specificity: Specific to 42D
  IC50: 10 µM
[2]
  half-life at 1 μM: 6 min
  Met Stab % (60 mins) MLM: 0%

## FC(F)(F)c1ccc2c(c1)/C(=N\Nc1nc3ccccc3s1)CC2 [7-36]
BRN2 [4]
  binding observed using DARTS assay: DARTS- good binding
42D^ENZR cells
  Growth Specificity: Specific to 42D, but weak activity
[2]
  half-life at 1 μM: > 60 min
  Met Stab % (60 mins) MLM: 78%
